Laboratory results: patent US10266548B2, “Substituted benzylindazoles for use as Bub1 kinase inhibitors in the treatment of hyperproliferative diseases” (Bayer Intellectual Property GmbH, priority 2011, dated 2019)
Where a name gives a salt, the structure may show the parent alone. Read-outs that look alike come from different tables or passages of the source.

Columns and labels:
[1] = biological target: catalytic domain of human Bub1 (amino acids 704-1085) (Homo sapiens (Human), UniProt O43683); test: Bub1 kinase assay (TR-FRET); format: biochemical; conditions: 10 μM ATP, 1 μM peptide substrate; read-out: Biological Assay 1: Bub1 kinase assay median IC50
catalytic domain of human Bub1 (amino acids 704-1085), sequence (O43683 704-1085): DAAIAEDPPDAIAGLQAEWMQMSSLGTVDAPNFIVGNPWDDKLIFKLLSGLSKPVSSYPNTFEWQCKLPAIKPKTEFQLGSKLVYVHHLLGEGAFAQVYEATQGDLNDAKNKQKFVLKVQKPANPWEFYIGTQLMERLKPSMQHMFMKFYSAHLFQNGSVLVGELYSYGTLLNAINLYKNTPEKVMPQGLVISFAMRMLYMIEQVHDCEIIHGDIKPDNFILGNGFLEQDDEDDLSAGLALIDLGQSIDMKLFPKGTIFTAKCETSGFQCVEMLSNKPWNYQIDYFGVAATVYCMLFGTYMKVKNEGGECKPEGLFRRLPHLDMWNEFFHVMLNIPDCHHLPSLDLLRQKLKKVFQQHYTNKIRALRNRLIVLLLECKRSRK
How it was run: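 Phosphoserine product detected by TR-FRET (Eu-labeled anti-mouse IgG/anti-phosphoserine antibody to streptavidin-XL665) after 1 h at 22 °C. IC50 from 4-parameter logistic fit.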

[2] = test system: HeLa cells; test: Proliferation assay (HeLa cell line); format: cell-based; conditions: read-out: Biological Assay 2: Proliferation assay (HeLa cell line) median IC50
[3] = test system: HeLa-MaTu-ADR cells; test: Proliferation assay (HeLa-MaTu-ADR cell line); format: cell-based; conditions: read-out: Biological Assay 2: Proliferation assay (HeLa-MaTu-ADR cell line) median IC50
Method: (§1) Cultivated tumor cells (cells were ordered from ATCC, except HeLa-MaTu and HeLa-MaTu-ADR, which were ordered from EPO-GmbH, Berlin) were plated at a density of 1000 to 5000 cells/well, depending on the growth rate of the respective cell line, in a 96-well multititer plate in 200 μL of their respective growth medium supplemented 10% fetal calf serum. After 24 hours, the cells of one plate (zero-point plate) were stained with crystal violet (see below), while the medium of the other plates was replaced by fresh culture medium (200 μl), to which the test substances were added in various concentrations (0 μM, as well as in the range of 0.001-10 μM; the final concentration of the solvent dimethyl sulfoxide was 0.5%). The cells were incubated for 4 days in the presence of test substances. Cell proliferation was determined by staining the cells with crystal violet: the cells were fixed by adding 20 μl/measuring point of an 11% glutaric aldehyde solution for 15 minutes at room temperature. After three washing cycles of the fixed cells with water, the plates were dried at room temperature. The cells were stained by adding 100 μl/measuring point of a 0.1% crystal violet solution (pH 3.0). After three washing cycles of the stained cells with water, the plates were dried at room temperature. The dye was dissolved by adding 100 μl/measuring point of a 10% acetic acid solution. […] The change of cell number, in percent, was calculated by normalization of the measured values to the aborbtion values of the zero-point plate (=0%) and the absorbtion of the untreated (0 μm) cells (=100%). The IC50 values were determined by means of a 4 parameter fit using the company's own software.

[4] = test system: MCF7 cells; test: Proliferation assay (MCF7 cell line); format: cell-based; conditions: Homo sapiens, 96 h; MCF7, 4 days, crystal violet; read-out: Biological Assay 2: Proliferation assay (MCF7 cell line) median IC50
Method: Cultivated tumor cells (cells were ordered from ATCC, except HeLa-MaTu and HeLa-MaTu-ADR, which were ordered from EPO-GmbH, Berlin) were plated at a density of 1000 to 5000 cells/well, depending on the growth rate of the respective cell line, in a 96-well multititer plate in 200 μL of their respective growth medium supplemented 10% fetal calf serum. After 24 hours, the cells of one plate (zero-point plate) were stained with crystal violet (see below), while the medium of the other plates was replaced by fresh culture medium (200 μl), to which the test substances were added in various concentrations (0 μM, as well as in the range of 0.001-10 μM; the final concentration of the solvent dimethyl sulfoxide was 0.5%). The cells were incubated for 4 days in the presence of test substances. Cell proliferation was determined by staining the cells with crystal violet: the cells were fixed by adding 20 μl/measuring point of an 11% glutaric aldehyde solution for 15 minutes at room temperature. […] Absorbtion was determined by photometry at a wavelength of 595 nm. The change of cell number, in percent, was calculated by normalization of the measured values to the aborbtion values of the zero-point plate (=0%) and the absorbtion of the untreated (0 μm) cells (=100%). The IC50 values were determined by means of a 4 parameter fit using the company's own software.

[5] = test system: NCI-H460 cells; test: Proliferation assay (H460 cell line); format: cell-based; conditions: read-out: Biological Assay 2: Proliferation assay (H460 cell line) median IC50
Method: as §1

[6] = test system: DU145 cells; test: Proliferation assay (DU145 cell line); format: cell-based; conditions: read-out: Biological Assay 2: Proliferation assay (DU145 cell line) median IC50
Method: as §1

[7] = test system: Caco2 cells; test: Proliferation assay (Caco2 cell line); format: cell-based; conditions: read-out: Biological Assay 2: Proliferation assay (Caco2 cell line) median IC50
Method: as §1

[8] = test system: B16F10 cells; test: Proliferation assay (B16F10 cell line); format: cell-based; conditions: read-out: Biological Assay 2: Proliferation assay (B16F10 cell line) median IC50
Method: as §1

[9] = 96 h, HeLa-MaTu-ADR, 4 days, crystal violet
[10] = Homo sapiens, NCI-H460, 96 h, H460, 4 days, crystal violet
[11] = Homo sapiens, DU-145, 96 h, DU145, 4 days, crystal violet
[12] = Homo sapiens, Caco-2, 96 h, Caco2, 4 days, crystal violet
[13] = Mus musculus, B16-F10, 96 h, B16F10, 4 days, crystal violet
[14] = Homo sapiens, 96 h, 4 days, crystal violet
[15] = HeLa-MaTu-ADR, 4 days, crystal violet

| IC50 [1] | IC50 ([2]; 4 days, crystal violet) | IC50 [3, 9] | IC50 [4] | IC50 [5, 10] | IC50 [6, 11] | IC50 [7, 12] | IC50 [8, 13] | IC50 [2, 14] | IC50 [3, 15] | IC50 ([5]; H460, 4 days, crystal violet) | IC50 ([6]; DU145, 4 days, crystal violet) | IC50 ([7]; Caco2, 4 days, crystal violet) | IC50 ([8]; B16F10, 4 days, crystal violet) | Compound | IC50 ([2]; Homo sapiens, 96 h) | IC50 ([3]; 96 h) | IC50 ([5]; Homo sapiens, NCI-H460, 96 h) | IC50 ([6]; Homo sapiens, DU-145, 96 h) | IC50 ([7]; Homo sapiens, Caco-2, 96 h) | IC50 ([8]; Mus musculus, B16-F10, 96 h) |
| --- | --- | --- | --- | --- | --- | --- | --- | --- | --- | --- | --- | --- | --- | --- | --- | --- | --- | --- | --- | --- |
| 420 nM |  | 590 nM |  | 1500 nM | 1400 nM | 1100 nM | 900 nM | 1700 nM |  |  |  |  |  | CCOc1cc(F)c(Cn2nc(-c3ncc(OC(F)F)c(N(c4ccncc4)C(F)F)n3)c3ccccc32)c(F)c1 [Example 10-2] |  |  |  |  |  |  |
| 3.3 nM |  | 1300 nM |  | 1300 nM | 1600 nM | 1200 nM | 790 nM | 1500 nM |  |  |  |  |  | CCOc1cc(F)c(Cn2nc(-c3ncc(OCCO)c(Nc4ccncc4)n3)c3ccccc32)c(F)c1 [Example 13-1, 2-({2-[1-(4-ethoxy-2,6-difluorobenzyl)-1H-indazol-3-yl]-4-(pyridin-4-ylamino)pyrimidin-5-yl}oxy)ethanol] |  |  |  |  |  |  |
| 5.2 nM |  |  |  |  |  |  |  | 1400 nM | 1200 nM | 2200 nM | 1200 nM | 1200 nM | 760 nM | CCOc1cc(F)c(Cn2nc(-c3ncc(OC)c(Nc4ccncc4)n3)c3ccccc32)c(F)c1 [Example 15-1, 2-[1-(4-ethoxy-2,6-difluorobenzyl)-1H-indazol-3-yl]-5-methoxy-N-(pyridin-4-yl)pyrimidin-4-amine hydrochloride (1:1)] |  |  |  |  |  |  |
| 200 nM |  | 3000 nM |  | 3000 nM | 3000 nM | 3000 nM | 2400 nM | 190 nM |  |  |  |  |  | CNC(=O)c1ccc(Cl)c(Cn2nc(-c3ncc(OC)c(Nc4ccncc4)n3)c3ccccc32)c1Cl [Example 20-1, 2,4-dichloro-3-({3-[5-methoxy-4-(pyridin-4-ylamino)pyrimidin-2-yl]-1H-indazol-1-yl}methyl)-N-methylbenzamide] |  |  |  |  |  |  |
| 3.4 nM | 1200 nM |  |  |  |  |  |  |  | 1100 nM | 1100 nM | 1300 nM | 600 nM | 600 nM | CCOc1cc(F)c(Cn2nc(-c3ncc(OCC4CNCCO4)c(Nc4ccncc4)n3)c3ccccc32)c(F)c1 (stereo not drawn) [Example 38-2] |  |  |  |  |  |  |
| 19 nM |  | 10000 nM |  | 10000 nM | 10000 nM | 3300 nM | 1800 nM | 6000 nM |  |  |  |  |  | COc1cnc(-c2nn(Cc3c(Cl)ccc(NC(C)=O)c3Cl)c3ccccc23)nc1Nc1ccncc1 [Example 41-1, N-[2,4-dichloro-3-({3-[5-methoxy-4-(pyridin-4-ylamino)pyrimidin-2-yl]-1H-indazol-1-yl}methyl)phenyl]acetamide] |  |  |  |  |  |  |

Second part, the compound before the results:

| Compound | IC50 [1] | IC50 ([2]; 4 days, crystal violet) | IC50 [3, 9] | IC50 [4] | IC50 [5, 10] | IC50 [6, 11] | IC50 [7, 12] | IC50 [8, 13] | IC50 [2, 14] | IC50 [3, 15] | IC50 ([5]; H460, 4 days, crystal violet) | IC50 ([6]; DU145, 4 days, crystal violet) | IC50 ([7]; Caco2, 4 days, crystal violet) | IC50 ([8]; B16F10, 4 days, crystal violet) | IC50 ([2]; Homo sapiens, 96 h) | IC50 ([3]; 96 h) | IC50 ([5]; Homo sapiens, NCI-H460, 96 h) | IC50 ([6]; Homo sapiens, DU-145, 96 h) | IC50 ([7]; Homo sapiens, Caco-2, 96 h) | IC50 ([8]; Mus musculus, B16-F10, 96 h) |
| --- | --- | --- | --- | --- | --- | --- | --- | --- | --- | --- | --- | --- | --- | --- | --- | --- | --- | --- | --- | --- |
| CCOc1cc(F)c(Cn2nc(-c3ncc(OC)c(Nc4ccncc4)n3)c3ccccc32)c(F)c1 [Example 2-5-1, 2-[1-(4-ethoxy-2,6-difluorobenzyl)-1H-indazol-3-yl]-5-methoxy-N-(pyridin-4-yl)pyrimidin-4-amine] | 4.6 nM | 2100 nM | 1200 nM | 3100 nM | 1400 nM | 1700 nM | 1200 nM | 1100 nM |  |  |  |  |  |  |  |  |  |  |  |  |
| COC(=O)c1ccc(Cl)c(Cn2nc(-c3ncc(OC)c(Nc4ccncc4)n3)c3ccccc32)c1Cl [Example 2-16-1, methyl 2,4-dichloro-3-({3-[5-methoxy-4-(pyridin-4-ylamino)pyrimidin-2-yl]-1H-indazol-1-yl}methyl)benzoate] | 8.4 nM |  | 1200 nM | 2000 nM | 2900 nM | 2000 nM | 2600 nM | 990 nM | 1600 nM |  |  |  |  |  |  |  |  |  |  |  |
| CCOc1cc(F)c(Cn2nc(-c3ncc(OC[C@H]4CCC(=O)N4)c(Nc4ccncc4)n3)c3ccccc32)c(F)c1 [Example 4-19, (5R)-5-[({2-[1-(4-ethoxy-2,6-difluorobenzyl)-1H-indazol-3-yl]-4-(pyridin-4-ylamino)pyrimidin-5-yl}oxy)methyl] pyrrolidin-2-one] | 10 nM |  |  |  |  |  |  |  |  |  |  |  |  |  | 1200 nM | 10000 nM | 2200 nM | 2300 nM | 10000 nM | 530 nM |
| CCOc1cc(F)c(Cn2nc(-c3ncc(OC[C@@H]4CCC(=O)N4)c(Nc4ccncc4)n3)c3ccccc32)c(F)c1 [Example 4-22, (5S)-5-[({2-[1-(4-ethoxy-2,6-difluorobenzyl)-1H-indazol-3-yl]-4-(pyridin-4-ylamino)pyrimidin-5-yl}oxy)methyl] pyrrolidin-2-one] | 5.8 nM |  |  |  |  |  |  |  |  |  |  |  |  |  | 1900 nM | 10000 nM | 2100 nM | 3600 nM | 9500 nM | 1200 nM |
| COc1ccc(Cn2nc(-c3nccc(Nc4ccncc4)n3)c3ccccc32)cc1 [Example 5-2, 2-[1-(4-methoxybenzyl)-1H-indazol-3-yl]-N-(pyridin-4-yl)pyrimidin-4-amine] | 27 nM |  |  |  |  |  |  |  |  |  |  |  |  |  | 710 nM | 3000 nM | 3000 nM | 3000 nM | 3000 nM | 3000 nM |
| C/C=C/c1cc(F)c(Cn2nc(-c3ncc(OC)c(Nc4ccncc4)n3)c3ccccc32)c(F)c1 [Example 6-2, 2-(1-{2,6-difluoro-4-[(1E)-prop-1-en-1-yl]benzyl}-1H-indazol-3-yl)-5-methoxy-N-(pyridin-4-yl)pyrimidin-4-amine] | 7.4 nM |  |  |  |  |  |  |  |  |  |  |  |  |  | 1400 nM | 1600 nM | 1700 nM | 1400 nM | 1200 nM | 1100 nM |
| OCC(O)COc1cnc(-c2nn(Cc3ccccc3F)c3ccccc23)nc1Nc1ccncc1 (stereo not drawn) [Example 12-1, 3-({2-[1-(2-fluorobenzyl)-1H-indazol-3-yl]-4-(pyridin-4-ylamino)-pyrimidin-5-yl}oxy)propane-1,2-diol] | 11 nM |  |  |  |  |  |  |  |  |  |  |  |  |  | ≥ 10000 nM | 10000 nM | 10000 nM | 10000 nM | 10000 nM | 10000 nM |
